Measurements as given in patent publication US6251912A, “Substituted quinazoline derivatives” (American Cyanamid Company, priority 1998, dated 2001).
Converted amounts (≈) assume the structure as drawn. Read-outs that look alike come from different tables or passages of the source.

Legend:
[1] = test system: human epidermoid tumors (A431); type: in vivo, BALB/c nu/nu female mice; details: for % T/C / Relative Tumor Growth (RTG): days 1 through 10; for inhibition of tumor growth in vivo: in words
Protocol: BALB/c nu/nu female mice (Charles River, Wilmington, Mass.) were used in the in vivo standard pharmacological test procedures. […] A unit of 5×10^6 cells were injected SC into mice. When tumors attained a mass of between 100 and 150 mg, the mice were randomized into treatment groups (day zero). Mice were treated IP or PO once a day either on days 1, 5, and 9 or on days 1 through 10 post staging with doses of either 80, 40 or 20, or 10 mg/kg/dose of the compound to be evaluated in 0.2% Klucel. Control animals received no drug. […] […] The %T/C (Tumor/Control) is determined by dividing the relative tumor growth of the treated group by the relative tumor growth of the placebo group and multiplying by 100.

[2] = test system: MB435; assay: Inhibition of cancer cell growth as measured by cell number, MB435; type: cell-based; details: Homo sapiens, read-out: IC50, inhibition of cancer cell growth
Protocol: (§1) After 48 hours exposure to test compounds, cells were fixed with trichloroacetic acid, and stained with Sulforhodamine B. After washing with trichloroacetic acid, bound dye was solubilized in 10 mM Tris base and optical density was determined using plate reader. Under conditions of the assay the optical density is proportional to the number of cells in the well. […] The test procedure is described in details by Philip Skehan et. al, J.Natl. Canc.

[3] = test system: A2780S; assay: Inhibition of cancer cell growth as measured by cell number, A2780S; type: cell-based; details: Homo sapiens, read-out: IC50, inhibition of cancer cell growth
Protocol: as §1

[4] = test system: A2780DDP; assay: Inhibition of cancer cell growth as measured by cell number, A2780DDP; type: cell-based; details: Homo sapiens, read-out: IC50, inhibition of cancer cell growth
Protocol: as §1

[5] = test system: MCF7; assay: Inhibition of cancer cell growth as measured by cell number, MCF7; type: cell-based; details: Homo sapiens, read-out: IC50, inhibition of cancer cell growth
Protocol: as §1

[6] = test system: SW620; assay: Inhibition of cancer cell growth as measured by cell number, SW620; type: cell-based; details: Homo sapiens, read-out: IC50, inhibition of cancer cell growth
Protocol: as §1

[7] = test system: LOX; assay: Inhibition of cancer cell growth as measured by cell number, LOX; type: cell-based; details: Homo sapiens, read-out: IC50, inhibition of cancer cell growth
Protocol: as §1

[8] = test system: A431; assay: Inhibition of cancer cell growth as measured by cell number, A431; type: cell-based; details: Homo sapiens, read-out: IC50, inhibition of cancer cell growth
Protocol: as §1

[9] = test system: SKBR3; assay: Inhibition of cancer cell growth as measured by cell number, SKBR3; type: cell-based; details: Homo sapiens, read-out: IC50, inhibition of cancer cell growth
Protocol: as §1

Structure (SMILES) | inhibition of tumor growth in vivo [1] | IC50 ([2]; 48 h) [µg/mL] | IC50 ([3]; 48 h) [µg/mL] | IC50 ([4]; 48 h) [µg/mL] | IC50 ([5]; MCF7, 48 h) [µg/mL] | IC50 ([6]; SW-620, 48 h) [µg/mL] | IC50 ([7]; 48 h) [µg/mL] | IC50 ([8]; A-431, 48 h) [µg/mL] | IC50 ([9]; SK-BR-3, 48 h) [µg/mL] | also measured
CN(C)CC#CC(=O)Nc1ccc2ncnc(Nc3cccc(Br)c3)c2c1 [Example 21, 4-Dimethylamino-but-2-ynoic acid [4-(3-bromo-phenylamino)-quinazolin-6-yl]-amide] | effective inhibitor of tumor growth in vivo | – | – | – | – | – | – | – | – | % T/C ([1]; 10 mg/kg/dose PO, Day 16): 56%; % T/C ([1]; 10 mg/kg/dose PO, Day 21): 42%; % T/C ([1]; 10 mg/kg/dose PO, Day 28): 42%; % T/C ([1]; 20 mg/kg/dose PO, Day 7): 100%; % T/C ([1]; 20 mg/kg/dose PO, Day 16): 82%; % T/C ([1]; 20 mg/kg/dose PO, Day 28): 72%; % T/C ([1]; 40 mg/kg/dose PO, Day 7): 79%; % T/C ([1]; 40 mg/kg/dose PO, Day 16): 84%
CC(C)(C)[Si](C)(C)OCC#CC(=O)Nc1ccc2ncnc(Nc3cccc(Br)c3)c2c1 [Example 15, 4-(tert-Butyl-dimethyl-silanyloxy)-but-2-ynoic acid [4-(3-bromo-phenylamino)-quinazolin-6-yl]-amide] | – | 0.42 (≈ 0.821 µM) | 0.02 (≈ 0.0391 µM) | 0.05 (≈ 0.0978 µM) | 0.45 (≈ 0.88 µM) | 0.02 (≈ 0.0391 µM) | 0.03 (≈ 0.0587 µM) | 0.04 (≈ 0.0782 µM) | 0.38 (≈ 0.743 µM) | –
CN(C)CC=CC(=O)Nc1ccc2ncnc(Nc3cccc(Br)c3)c2c1 [Example 66, 4-Dimethylamino-but-2-enoic acid [4-(3-bromo-phenylamino)-quinazolin-6-yl]-amide] | – | 5.4 (≈ 12.7 µM) | 3.9 (≈ 9.15 µM) | 5.1 (≈ 12 µM) | 7.6 (≈ 17.8 µM) | 5.1 (≈ 12 µM) | 4.9 (≈ 11.5 µM) | 0.007 (≈ 0.0164 µM) | < 0.01 | –
CCN(CC)CC#CC(=O)Nc1ccc2ncnc(Nc3cccc(Br)c3)c2c1 [Example 25, 4-Diethylamino-but-2-ynoic acid[4-(3-bromo-phenylamino)-quinazolin-6-yl]-amide] | effective inhibitor of tumor growth in vivo | – | – | – | – | – | – | – | – | % T/C ([1]; 40 PO, Day 7 (TABLE 5)): 71%; Relative Tumor Growth (RTG) ([1]; 40 PO, Day 7, control 2.76 (TABLE 5)): 1.96; % T/C ([1]; 40 PO, Day 14 (TABLE 5)): 33%; Relative Tumor Growth (RTG) ([1]; 40 PO, Day 14, control 7.07 (TABLE 5)): 2.33; % T/C ([1]; 40 PO, Day 21 (TABLE 5)): 40%; Relative Tumor Growth (RTG) ([1]; 40 PO, Day 21, control 11.75 (TABLE 5)): 4.68; % T/C ([1]; 40 PO, Day 28 (TABLE 5)): 52%; Relative Tumor Growth (RTG) ([1]; 40 PO, Day 28, control 17.13 (TABLE 5)): 8.84; S/T (No. Survivors/No. Treated) ([1]; mouse, in vivo, po): 4/5
C=C(CN1CCOCC1)C(=O)Nc1ccc2ncnc(Nc3cccc(Br)c3)c2c1 [Example 63, N-[4-(3-Bromo-phenylamino)-quinazolin-6-yl]-2-morpholin-4-ylmethyl-acrylamide] | – | 4.5 (≈ 9.61 µM) | 0.8 (≈ 1.71 µM) | 4 (≈ 8.54 µM) | 17 (≈ 36.3 µM) | 5.5 (≈ 11.7 µM) | 3.9 (≈ 8.33 µM) | 0.6 (≈ 1.28 µM) | 10 (≈ 21.4 µM) | –
CCN(CC)CC=CC(=O)Nc1ccc2ncnc(Nc3cccc(Br)c3)c2c1 [Example 67, 4-Diethylamino-but-2-enoic acid [4-(3-bromo-phenylamino)-quinazolin-6-yl]-amide] | – | – | – | – | – | – | – | – | – | IC50 ([2]; MB435, 48 hours exposure): 45 µg/mL (≈ 99 µM); IC50 ([3]; 48 hours exposure): 22 µg/mL (≈ 48.4 µM); IC50 ([4]; A2780DDP, 48 hours exposure): 43 µg/mL (≈ 94.6 µM); IC50 ([5]; MCF7, 48 hours exposure): 59 µg/mL (≈ 130 µM); IC50 ([6]; SW-620, SW620, 48 hours exposure): 52 µg/mL (≈ 114 µM); IC50 ([7]; 48 hours exposure): 46 µg/mL (≈ 101 µM); IC50 ([8]; A-431, A431, 48 hours exposure): 0.01 µg/mL (≈ 0.022 µM); IC50 ([9]; SK-BR-3, SKBR3, 48 hours exposure): < 0.01 µg/mL
